For series [1], the system named is stimulierten PBL. Particulars: stimulierte PBL, Arner et al., 1992; cited from earlier work.
For series [2], the system named is LCE. The experiment in a line: Influence of enzyme inhibitors or activators on LCE activity, kidney membrane fraction. The format is biochemical, Balb/c. Particulars: LCE Membranfraktion Niere (Balb/c). The protocol:
(§1) Das Pipettierschema ist in der folgenden Tabelle angegeben. Tabelle
(§2) Zur Untersuchung der enzymatischen Spaltung in Abhängigkeit von der Substratkonzentration wurde eine Substratstammlösung von 0.98 nmol [^14C]-AZT-DMDOPE und 0.7 nmol AZT-DMDOPE/80 µl Aqua bidest. im LCE-Assay angesetzt. Die verschiedenen Substratkonzentrationen im LCE-Assay wurden durch kontinuierliche Verdopplung bzw. Halbierung des Volumens an Substratlösung eingestellt. Die Ansätze wurden in Glasröhrchen (5 ml) vorgelegt und durch Zugabe der Substratlösung gestartet. Die Inkubation wurde bei 37 °C im Wasserbad unter leichtem Schütteln durchgeführt.
(§3) Die Reaktionsansätze des LCE-Assays wurden nach entsprechender Inkubationszeit dem Wasserbad entnommen, und die Reaktion durch Zugabe von 750 µl 2-Propanol gestoppt. Nach gründlicher Durchmischung wurden die Ansätze anschließend mit 700 µl auf Raumtemperatur erwärmtem n-Heptan versetzt. Die Ansätze wurden erneut für 30 sec gut gemischt und zur Beschleunigung der Phasentrennung in der Minifuge T bei 3200 rpm für 15 min bei Raumtemperatur zentrifugiert. Anschließend wurden 500 µl der oberen Phase (n-Heptan) entnommen und in neue Glasröhrchen (5 ml) mit 10 mg Kieselgel 60 H und 200 µl n-Heptan überführt. Die Ansätze wurden für 30 sec gut durchmischt und zur Sedimentation des Kieselgels für 10 min unter oben genannten Bedingungen zentrifugiert. Vom Überstand wurden anschließend 500 µl entnommen und mit 3 ml Szintillationsflüssigkeit versetzt. Die Messung der Radioaktivität erfolgte für 4 min im Flüssigkeits-Szintillations-Analysator. Zur Bestimmung des Absolutwertes an Radioaktivität wurden 200 µl der Substratlösung mit 3 ml Szintillationsflüssigkeit versetzt und unter gleichen Bedingungen im Flüssigkeits-Szintillations-Analysator gemessen.

In series [3] the test system is LCE. In words: Influence of enzyme inhibitors or activators on LCE activity, CEM-SS membrane fraction. The format is biochemical. Particulars: LCE Membranfraktion CEM-SS. The protocol: as §1, §2
as §3, with “Vom Überstand wurden anschließend 500 µl entnommen und mit 3 ml Szintillationsflüssigkeit versetzt. Die Messung der Radioaktivität erfolgte für 4 min im Flüssigkeits-Szintillations-Analysator. Zur Bestimmung des Absolutwertes an Radioaktivität wurden 200 µl der Substratlösung mit 3 ml Szintillationsflüssigkeit versetzt und unter gleichen Bedingungen im Flüssigkeits-Szintillations-Analysator gemessen.” left out

The test system of series [4] is LCE. The experiment in a line: Effect of phospholipase C/D inhibitors and activators on LCE as stated in the description. It counts as biochemical.
The subject of series [5] is Phospholipase C. Particulars: cited from earlier work.

On to `Cc1cn([C@H]2C[C@H](N=[N+]=[N-])[C@@H](COP(=O)(O)O)O2)c(=O)[nH]c1=O` [AZT-MP, 3'-Desoxy-3'-azidothymidin-monophosphat], for which the “im Vergleich zu AZT-DP und AZT-TP um Faktor höhere Konzentration an AZT-MP” value in series [1] is 40.
Regarding `S=C(S)OC1CC2CC1C1CCCC21` (centres unmarked) [D 609, Tricyclodecan-9-yl-xanthogenat], the “Einfluß auf LCE-Aktivität” value in series [2] and in series [3] was “Stimulation Stimulation” throughout. For the same compound, the “Einfluß auf LCE (Hemmung/Aktivierung)” value in series [4] was “aktiviert”. The “Einfluß auf Phospholipase C” value in series [5] is “inhibiert”.

(Values after patent EP0791056B1, “LIPID-CLEAVAGE ENZYME COMPLEX” (priority 1994, dated 1996).)
